Assay results: ChEMBL document CHEMBL1124141, “(+/-)-9-Amino-1,2,3,4-tetrahydroacridin-1-ol. A potential Alzheimer's disease therapeutic of low toxicity” (J Med Chem, 1988)

Assays:
Acetylcholinesterase = target: T1, Acetylcholinesterase (Rattus norvegicus, UniProt P37136); assay: In vitro inhibitory activity against acetylcholinesterase using rat striatal preparations
T1 sequence (P37136 whole entry): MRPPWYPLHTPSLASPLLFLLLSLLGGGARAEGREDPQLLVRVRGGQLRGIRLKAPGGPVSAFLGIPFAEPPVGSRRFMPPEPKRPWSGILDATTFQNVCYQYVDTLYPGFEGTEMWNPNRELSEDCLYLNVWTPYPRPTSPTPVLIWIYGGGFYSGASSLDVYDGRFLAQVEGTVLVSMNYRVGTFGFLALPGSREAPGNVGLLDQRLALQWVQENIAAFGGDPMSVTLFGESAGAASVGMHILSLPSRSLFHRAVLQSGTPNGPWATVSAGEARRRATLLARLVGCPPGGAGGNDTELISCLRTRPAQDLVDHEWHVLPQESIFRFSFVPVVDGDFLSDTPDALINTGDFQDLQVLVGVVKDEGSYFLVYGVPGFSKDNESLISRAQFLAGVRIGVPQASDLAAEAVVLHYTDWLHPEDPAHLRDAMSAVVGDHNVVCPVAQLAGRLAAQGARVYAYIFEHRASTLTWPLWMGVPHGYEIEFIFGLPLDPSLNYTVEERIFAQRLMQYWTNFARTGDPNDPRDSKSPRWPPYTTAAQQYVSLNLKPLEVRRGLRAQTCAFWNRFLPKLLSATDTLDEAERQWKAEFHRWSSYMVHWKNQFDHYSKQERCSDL

[1] = Acute toxicity in mice was determined after oral administration; format: organism-based; conditions: mouse, in vivo
Mus musculus = organism: Mus musculus; conditions: dose 0.63 mg/kg; route subcutaneous
Description: Reversal of scopolamine-induced memory impairment in mice, after subcutaneous administration of 0.63 mg/kg

SMILES: Nc1c2c(nc3ccccc13)CCCC2O.O=C(O)/C=C\C(=O)O (stereo not drawn) [VELNACRINE MALEATE]
- IC50 (Acetylcholinesterase): 4.8 µM
- LD50 [1]: 136 mg/kg
- Reversal (Mus musculus): 33%
